Data: patent US8158621B2, “Methods of treating or preventing autoimmune diseases with 2,4-pyrimidinediamine compounds” (Rigel Pharmaceuticals, Inc., priority 2002, dated 2012)
Read-outs that look alike come from different tables or passages of the source. Each block holds one compound with its values, some of them ahead of it.

Columns and labels:
[1] = test system: Human Jurkat T-cells (clone N); assay: Jurkat T-cell activation (anti-TCR, CD69 upregulation); format: cell-based
In short: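 Readout is CD69 upregulation by flow cytometry (anti-CD69-APC, 20 min at 4 °C) after 20 h anti-TCR (C305, 500 ng/ml) stimulation at 37 °C.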

[2] = test system: cultured human mast cells (CHMC); assay: CHMC low cell density ionomycin activation: tryptase assay; format: cell-based
[3] = test system: cultured human mast cells (CHMC); assay: CHMC low cell density IgE activation: tryptase assay; format: cell-based
In short: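 Read-out: tryptase released into supernatant, measured by substrate turnover over 30 min at RT. Low-density CHMC (1000-1500 cells/well, per donor degranulation activity) in MT buffer, 1 hr at 37° C, then anti-IgE challenge 30 min at 37° C.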

Syk kinase = biological target: T1, Syk kinase (Homo sapiens, UniProt P43405); assay: Syk kinase biochemical fluorescence polarization assay; details: isolated Syk kinase, fluorescence polarization, 4 uM ATP
T1 construct: purchased Upstate, Lake Placid NY

[4] = Homo sapiens, Mast cell, Low Density, read-out: CHMC Ionomycin Tryptase
[5] = Homo sapiens, Mast cell, Low Density, read-out: CHMC anti-IgE Tryptase
[6] = Low Density CHMC, ionomycin activation, tryptase release, read-out: CHMC Ionomycin Tryptase IC50
[7] = Low Density CHMC, anti-IgE activation, tryptase release, read-out: CHMC anti-IgE Tryptase IC50
[8] = Low Density, read-out: CHMC Ionomycin Tryptase
[9] = Low Density, read-out: CHMC anti-IgE Tryptase
[10] = low cell density, read-out: CHMC Ionomycin Tryptase
[11] = low cell density, read-out: CHMC anti-IgE Tryptase

SMILES: CC(C)(C)OC(=O)N1CCc2ccc(Nc3nc(Cl)ncc3F)cc2C1 [Compound R926911]
IC50 ([1]; Homo sapiens, Jurkat): > 10 µM
IC50 [2, 4]: > 10 µM
IC50 [3, 5]: > 10 µM

SMILES: COC(=O)C(Nc1nc(Nc2ccc3c(c2)OCCO3)ncc1C#N)c1ccccc1 (stereo not shown) [Compound R925820]
IC50 [1]: > 10 µM
IC50 [2, 6]: > 10 µM
IC50 [3, 7]: > 10 µM

SMILES: O=C(NCC(O)CO)c1cc2cc(Nc3ncc(F)c(Nc4ccc5c(c4)OCCO5)n3)ccc2o1 (stereo not shown) [Compound R926783]
IC50 [1]: 2.95 µM
IC50 [2, 6]: > 10 µM
IC50 [3, 7]: 0.304 µM

SMILES: COC(=O)C(Nc1ncc(C#N)c(NC(C(=O)OC)c2ccccc2)n1)c1ccccc1 (stereo not shown) [Compound R925819]
IC50 [1]: > 10 µM
IC50 [2, 6]: > 10 µM
IC50 [3, 7]: > 10 µM

SMILES: O=C1COc2ccc(Nc3nc(Cl)ncc3F)nc2N1 [Compound R945298]
IC50 ([1]; Homo sapiens, Jurkat): 9.47 µM
IC50 [2, 4]: > 10 µM
IC50 [3, 5]: > 10 µM

SMILES: CCOC(=O)CCn1ncc2ccc(Nc3ncc(F)c(Nc4ccc(OC(C)C)cc4)n3)cc21 [Compound R935289]
IC50 [1]: 5.34 µM
IC50 [2, 8]: > 10 µM
IC50 [3, 9]: 1.69 µM

SMILES: COC(=O)[C@H](Cc1ccc(O)cc1)Nc1nc(N(C)C)ncc1F [Compound R940110]
IC50 [1]: > 10 µM
IC50 [2, 8]: > 10 µM
IC50 [3, 9]: > 10 µM

SMILES: CN1C(=O)COc2ccc(Nc3ncc(F)c(Nc4cccc(O)c4)n3)cc21 [Compound R908703]
IC50 [1]: 1.4 µM
IC50 [2, 8]: > 10 µM
IC50 [3, 9]: 0.63 µM

SMILES: CCOC(=O)c1cnc(N[C@@H](Cc2ccc(O)cc2)C(=O)OC)nc1N[C@@H](Cc1ccc(O)cc1)C(=O)OC [Compound R926514]
IC50 [1]: 15.6 µM
IC50 [2, 6]: > 10 µM
IC50 [3, 7]: > 10 µM

SMILES: Cc1ccc(-c2ccccc2)cc1Nc1ncc(Br)c(Nc2cc(-c3ccccc3)ccc2C)n1 [Compound R925800]
IC50 [1]: > 10 µM
IC50 [2, 6]: > 10 µM
IC50 [3, 7]: > 10 µM

SMILES: OCCOc1cccc(Nc2ncc(F)c(Nc3ccc4c(c3)OCCCO4)n2)c1 [Compound R935186]
IC50 [1]: 1.09 µM
IC50 [2, 8]: > 10 µM
IC50 [3, 9]: 0.211 µM

SMILES: O=C(N[C@H]1CCOc2ccc(Nc3nc(Cl)ncc3F)cc21)OCc1ccccc1 [Compound R950413]
IC50 [2, 10]: > 10 µM
IC50 [3, 11]: > 10 µM

SMILES: CCOC(=O)c1ncn2c1COc1c(Nc3ncc(F)c(Nc4cccc(O)c4)n3)cccc1-2 [Compound R909267]
IC50 [1]: > 10 µM
IC50 [2, 8]: > 10 µM
IC50 [3, 9]: 0.589 µM

SMILES: COc1ccc(Nc2nc(Nc3ccc4oc(CN(C)C)cc4c3)ncc2F)cc1Cl [Compound R926978]
IC50 [2, 10]: 18 µM
IC50 [3, 11]: 0.995 µM

SMILES: COc1cc(Nc2ncc(F)c(Nc3ccc4c(c3)C(N)CCO4)n2)cc(OC)c1 (racemic) [Compound R950426]
IC50 [2, 10]: 30 µM
IC50 [3, 11]: 0.142 µM

SMILES: COc1c(Cl)cc(Nc2ncc(F)c(Nc3ccc4c(c3)NC(=O)[C@@H](C)O4)n2)cc1Cl [Compound R908947]
IC50 [2, 10]: > 10 µM
IC50 [3, 11]: 0.496 µM

SMILES: CNC(=O)n1ccc2ccc(Nc3nc(Nc4cc(OC)cc(OC)c4)ncc3F)cc21 [Compound R926995]
IC50 [2, 10]: > 10 µM
IC50 [3, 11]: 9.56 µM

Further lines, results first:

IC50 [1]: > 10 µM
IC50 [2, 6]: > 10 µM
IC50 [3, 7]: > 10 µM
SMILES: COC(=O)C(Nc1nc(Nc2cccc(O)c2)ncc1C#N)c1ccccc1 (stereo not shown) [Compound R925821]

IC50 [1]: 16.4 µM
IC50 [2, 8]: > 10 µM
IC50 [3, 9]: 0.862 µM
SMILES: CC(C)(C)C(=O)Nc1cccc(Nc2ncc(F)c(Nc3cccc(O)c3)n2)c1 [Compound R940275]

IC50 ([1]; Homo sapiens, Jurkat): 8.22 µM
IC50 ([2]; Homo sapiens, Mast cell, Low Density CHMC, ionomycin activation, tryptase release, read-out: CHMC Ionomycin Tryptase IC50): 8.74 µM
IC50 ([3]; Homo sapiens, Mast cell, Low Density CHMC, anti-IgE activation, tryptase release, read-out: CHMC anti-IgE Tryptase IC50): 0.446 µM
SMILES: CNC(=O)c1cc2cc(Nc3ncc(F)c(Nc4ccc(C(C)(C)C)cc4)n3)ccc2o1 [Compound R926713]

IC50 (Syk kinase): 0.087 µM
SMILES: COc1ccc(Nc2ncc(F)c(Nc3ccc4c(n3)NC(=O)CO4)n2)cc1OC [Compound R945422]

IC50 [1]: > 10 µM
IC50 [2, 8]: > 10 µM
IC50 [3, 9]: 8.8 µM
SMILES: Oc1cccc(Nc2ncc(F)c(NC(c3ccc(Cl)cc3)c3ccc(Cl)cc3)n2)c1 [Compound R935019]

IC50 [1]: 8.23 µM
IC50 [2, 8]: > 10 µM
IC50 [3, 9]: 7.91 µM
SMILES: O=C(O)CNc1cccc(Nc2ncc(F)c(Nc3cccc(OCCO)c3)n2)c1 [Compound R950230]

IC50 (Syk kinase): 2.8 µM
SMILES: Cn1ncc2cc(Nc3ncc(F)c(Nc4ccc(Cl)nc4)n3)ccc21 [Compound R935375]

IC50 [1]: 4.68 µM
IC50 [2, 6]: > 10 µM
IC50 [3, 7]: 0.472 µM
SMILES: Oc1cccc(Nc2nc(Nc3ccc4[nH]ccc4c3)ncc2F)c1 [Compound R926749]

IC50 ([1]; Homo sapiens, Jurkat): > 10 µM
IC50 [2, 4]: > 10 µM
IC50 [3, 5]: > 10 µM
SMILES: Cc1ccc(Nc2nc(Cl)ncc2F)cc1C(F)(F)F [Compound R926920]

IC50 [2, 10]: > 10 µM
IC50 [3, 11]: 2.27 µM
SMILES: Nc1cccc(Nc2nc(Nc3ccc(OC(F)(F)F)c(Cl)c3)ncc2F)n1 [Compound R927081]

IC50 [2, 10]: > 10 µM
IC50 [3, 11]: 50.5 µM
SMILES: CCN(CC)CCCNc1ncc(F)c(Nc2ccc3c(c2)NC(=O)[C@H](C)O3)n1 [Compound R950471]
